From patent US10870635B2, “Compounds and their use as BACE1 inhibitors” (ALLGENESIS BIOTHERAPEUTICS, INC., priority 2015, dated 2020)

Experiments:
[1] = system: Aβ38, Aβ40 and Aβ42 in CSF; assay: Efficacy study in monkeys: Aβ biomarkers in CSF after single oral administration; assay type: in vivo, cynomolgus monkeys; conditions: Monkey CSF
From the text: Certain isoforms of amyloid β peptide (AR), such as Aβ338, Aβ340 and Aβ342 have been established as relevant biomarkers that reflect BACE1 activity and have been exploited to establish translational relationships between different cellular assays and animal models. In this efficacy study, mammals were used to assess amyloid β reduction with BACE1 inhibitors. In a clinical setting, plasma and cerebrospinal fluid (CSF) are the accessible compartments to measure soluble amyloid β levels to determine target profile. It is important to analyze plasma and CSF levels which relate to changes in brain amyloid β levels. The concentration of BACE1 inhibitors and their time-dependent reduction of plasma, CSF and brain amyloid β levels were investigated following intravenous and oral administrations of BACE1 inhibitors.
a (ii). Formulation for PO administration: 5% (v/v) PEG400+95% (v/v) of 1% (w/v) methyl cellulose in water (the viscosity of methyl cellulose is 20 g/L, 20° C., cPa·s: 350.0-550.0). The test article solutions were prepared by dissolving the compound in PEG400 followed by the addition of the aqueous solution to the final volume.
For the oral formulation of a BACE1 inhibitor in the monkey efficacy study (at the dose of 20 mg/kg with the concentration of 2 mg/ml)
1) Weighed […] of the selected BACE1 inhibitors into a clean vial;
2) Added 2.826 mL of PEG400 into the tube containing the compound. Then vortexed for 5 min and sonicated for 45 min;
3) Added 53.688 mL of 1% MC in water into the tube containing the compound. Then vortexed for 4 min and sonicated for 4 min; and
4) Adjusted the pH to the physiological value by using 1N NaOH.
Several studies have shown that drug transport into the CNS may be more similar between humans and primates. […] To explore the mechanism of BACE1 compounds, the compounds were tested using this in vivo study. […] The monkey Aβ reduction study usually takes 3 weeks.
The time-course profiles of neurodegeneration biomarkers were determined following single oral administration of the selected BACE1 inhibitors to male cynomolgus monkeys. Blood samples were collected from all animals via the saphenous vein or cephalic vein at 0 (pre-dose), 0.5, 1, 3, 6, 8, 12 and 24 hr post-dose into test tubes containing potassium ethylenediaminotetraacetic acid (K2EDTA). CSF samples were collected via a pre-implanted cannula at the foramina occipital magnum site at 0 (pre-dose), 3, 6, 12 and 24 hr post-dose.
Plasma was separated from the blood by centrifugation at 4° C. and stored at −80° C. until analyzing. The biomarkers of Aβ38, Aβ40 and Aβ42 in CSF were quantified using Meso Scale Discovery (MSD) multiplex electrochemiluminescence immunoassay according to the manufacturer's instructions. The plates were first blocked with 150 μL of Diluent 35 for 1 hour at room temperature with constant shaking at 600 rpm. After washing three times with 200 μL washing buffer, 25 μL of 1× detection antibody solution, plus Aβ40 blocker, 25 μL of seven standards, zero standard and four-fold diluted samples were added to the assay plate. The plate was incubated for 2 hours at room temperature, with constant shaking at 600 rpm. Upon finishing, the plate was washed three times with washing buffer and read in a Sector Imager 6000 (MSD) immediately after addition of 150 μL of 2× Read Buffer T. Aβ concentrations were calculated with reference to the standard curves of each individual peptide and expressed as pg/mL using SoftMax Pro GXP 5.4.4.

[2] = molecular target: BACE1 (recombinant β-secretase enzyme) (Homo sapiens (Human), UniProt P56817); assay: AnaSpec BACE1 fluorescent assay (beta-secretase activity assay); assay type: biochemical
BACE1 (recombinant β-secretase enzyme), sequence (P56817 46-501): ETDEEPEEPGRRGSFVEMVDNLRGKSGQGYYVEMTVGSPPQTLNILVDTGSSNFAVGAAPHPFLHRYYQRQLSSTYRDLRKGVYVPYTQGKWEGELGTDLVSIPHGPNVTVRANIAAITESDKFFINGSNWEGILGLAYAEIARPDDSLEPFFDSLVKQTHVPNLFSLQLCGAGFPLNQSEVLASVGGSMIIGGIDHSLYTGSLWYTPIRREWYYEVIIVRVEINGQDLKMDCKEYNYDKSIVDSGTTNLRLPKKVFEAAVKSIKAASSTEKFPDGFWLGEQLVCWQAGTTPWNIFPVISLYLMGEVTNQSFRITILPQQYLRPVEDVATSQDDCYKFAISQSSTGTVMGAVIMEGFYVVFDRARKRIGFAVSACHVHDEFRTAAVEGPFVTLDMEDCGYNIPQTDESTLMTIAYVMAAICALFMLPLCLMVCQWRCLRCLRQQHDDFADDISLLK
Method: A BACE1 activity assay kit from AnaSpec (Fremont, Calif.) was used to determine the potency of the selected BACE1 inhibitors by AnaSpec BACE1 fluorescent assay. The recombinant β-secretase enzyme was diluted 1:200 in 1× assay buffer (1 part of 1× assay buffer and 1 part of TBS containing 0.1% Tween 20). The enzyme was added in a volume of 40 μl to each well of a black 96-well micro plate.
The BACE1 inhibitors were serially diluted into DMSO from their 10 mM stock concentrations in DMSO. The serially diluted inhibitors were diluted 1:100 into 1× assay buffer in a 96-well polypropylene plate (assay dilution plate). The final concentration of the BACE1 inhibitor tested was 300 nM, 100 nM, 30 nM, 10 nM, 3 nM, 1 nM 0.3 nM, and 0.00 nM. Dose responses for inhibitors were run in duplicate.
A volume of 10 μl of the inhibitor from the assay dilution plate, a control inhibitor LY2886721 or inhibitor vehicle was then added to each well of the black 96-well micro plate containing BACE1.
To each well of the black 96-well micro plate, 50 μl of the β-secretase substrate (Hylite Fluor 488) diluted 1:100 using assay buffer was added. The reagents were mixed gently and the assay plate was placed into a POLARstar fluorescent plate reader with excitation wavelength set at 485 nm and the emission wavelength set at 520 nm. The plate reader was set to take readings every 5 minutes for up to 30 minutes or a 30 minute endpoint reading was used.
An appropriate integrated first-order rate equation was used to fit the data accumulated over a 30-40 minute collection period.

IC50 [2] [nM] | SMILES | % of maximum Aβ40 inhibition over 24 hours [1] [%]
21 | CC#Cc1ccc2sc3cc(F)c([C@]4(C)CC(=O)N(C)C(=N)N4)cc3c2c1 [Example 72, (S)-6-(3-Fluoro-8-(prop-1-yn-1-yl)dibenzo[b,d]thiophen-2-yl)-2-imino-3,6-dimethyltetrahydropyrimidin-4(1H)-one] | 33.7
87 | CC#Cc1ccc2c(c1)-c1cc([C@]3(C)CC(=O)N(C)C(=N)N3)ccc1S2(=O)=O [Example 79, (S)-2-Amino-6-(5,5-dioxido-8-(prop-1-yn-1-yl)dibenzo[b,d]thiophen-2-yl)-3,6-dimethyl-5,6-dihydropyrimidin-4(3H)-one] | 
> 300 | CC#Cc1ccc2c(c1)-c1cc([C@]3(C)CC(=O)N(C)C(=N)N3)ccc1C2(C)C [Example 81, (S)-6-(9,9-Dimethyl-6-(prop-1-yn-1-yl)-9H-fluoren-3-yl)-2-imino-3,6-dimethyl-tetrahydropyrimidin-4(1H)-one] | 
> 300 | CC#Cc1ccc2c(c1)-c1cc([C@]3(C)CC(=O)N(C)C(=N)N3)ccc1C2(F)F [Example 82, (S)-6-(9,9-Difluoro-6-(prop-1-yn-1-yl)-9H-fluoren-3-yl)-2-imino-3,6-dimethyltetrahydropyrimidin-4(1H)-one] | 
> 300 | CC#Cc1ccc2sc3ccc([C@]4(C5CC5)CC(=O)N(C)C(=N)N4)cc3c2c1 [Example 99, (R)-6-Cyclopropyl-2-imino-3-methyl-6-(8-(prop-1-yn-1-yl)dibenzo[b,d]thiophen-2-yl)tetrahydropyrimidin-4(1H)-one] | 
202 | CC#Cc1ccc2sc3ccc([C@@]4(C)NC(=N)OCC4(F)F)cc3c2c1 [Example 100, (R)-5,5-Difluoro-4-methyl-4-(8-(prop-1-yn-1-yl)dibenzo[b,d]thiophen-2-yl)-1,3-oxazinan-2-imine] | 
> 300 | CC#Cc1ccc2sc3ccc([C@]4(C)CC(=O)N(CC(F)F)C(=N)N4)cc3c2c1 [Example 105, (S)-3-(2,2-Difluoroethyl)-2-imino-6-methyl-6-(8-(prop-1-yn-1-yl)dibenzo [b,d]thiophen-2-yl)tetrahydropyrimidin-4(1H)-one] | 

More lines, now with the values behind:

SMILES | IC50 [2] [nM] | % of maximum Aβ40 inhibition over 24 hours [1] [%]
CC#Cc1ccc2c(c1)c1cc([C@]3(C)CC(=O)N(C)C(=N)N3)ccc1[s+]2[O-] (stereo partly drawn) [Example 80, (6S)-2-Amino-3,6-dimethyl-6-(5-oxido-8-(prop-1-yn-1-yl)dibenzo[b,d]thiophen-2-yl)-5,6-dihydropyrimidin-4(3H)-one] | 48 | 
CN1C(=N)N[C@](C)(c2ccc3sc4ccc(C#N)cc4c3c2)CC1=O [Example 85, (S)-8-(2-Imino-1,4-dimethyl-6-oxohexahydropyrimidin-4-yl) dibenzo[b,d]thiophene-2-carbonitrile] | > 300 | 
COCC#Cc1ccc2sc3ccc([C@]4(C)CC(=O)N(C)C(=N)N4)cc3c2c1 [Example 86, (S)-2-Amino-6-(8-(3-methoxyprop-1-yn-1-yl)dibenzo[b,d]thiophen-2-yl)-3,6-dimethyl-5,6-dihydropyrimidin-4(3H)-one] | 218 | 
CN1C(=N)N[C@](C)(c2ccc3sc4ccc(C#CCO)cc4c3c2)CC1=O [Example 87, (S)-2-Amino-6-(8-(3-hydroxyprop-1-yn-1-yl)dibenzo[b,d]thiophen-2-yl)-3,6-dimethyl-5,6-dihydropyrimidin-4(3H)-one] | 17 | 
CN1C(=N)N[C@](C)(c2ccc3sc4ccc(Br)cc4c3c2)CC1=O [Example 88, (S)-6-(8-Bromodibenzo[b,d]thiophen-2-yl)-2-imino-3,6-dimethyltetrahydro-pyrimidin-4(1H)-one] | > 300 | 
CCCc1ccc2sc3ccc([C@]4(C)CC(=O)N(C)C(=N)N4)cc3c2c1 [Example 89, (S)-2-Imino-3,6-dimethyl-6-(8-propyl-dibenzo[b,d]thiophen-2-yl)tetrahydro-pyrimidin-4(1H)-one] | > 300 | 
CN1C(=N)N[C@](C)(c2ccc3sc4ccc(C5CC5)cc4c3c2)CC1=O [Example 90, (S)-6-(8-Cyclopropyldibenzo[b,d]thiophen-2-yl)-2-imino-3,6-dimethyl-tetrahydropyrimidin-4(1H)-one] | 78 | 
CN1C(=N)N[C@](C)(c2ccc3sc4ccc(C(N)=O)cc4c3c2)CC1=O [Example 91, (S)-8-(2-Imino-1,4-dimethyl-6-oxohexahydropyrimidin-4-yl)dibenzo [b,d]thiophene-2-carboxamide] | > 300 | 
CCN(CC)c1ccc2sc3ccc([C@]4(C)CC(=O)N(C)C(=N)N4)cc3c2c1 [Example 92, (S)-6-(8-(Diethylamino)dibenzo[b,d]thiophen-2-yl)-2-imino-3,6-dimethyl-tetrahydropyrimidin-4(1H)-one] | > 300 | 
CN1C(=N)N[C@](C)(c2ccc3sc4ccc(C(F)(F)F)cc4c3c2)CC1=O [Example 94, (S)-2-Amino-3,6-dimethyl-6-(8-(trifluoromethyl)dibenzo[b,d]thiophen-2-yl)-5,6-di hydropyrimidin-4(3H)-one] | 81 | 
CC#Cc1ccc2sc3ccc([C@]4(C)CS(=O)(=O)N(C)C(=N)N4)cc3c2c1 [Example 104, (R)-3-Imino-2,5-dimethyl-5-(8-(prop-1-yn-1-yl)dibenzo[b,d]thiophen-2-yl)-1,2,4-thiadiazinane 1,1-dioxide] | > 300 | 
CC#Cc1ccc2sc3ccc([C@]4(C)CC(=O)N(CCOC)C(=N)N4)cc3c2c1 [Example 106, (S)-2-Imino-3-(2-methoxyethyl)-6-methyl-6-(8-(prop-1-yn-1-yl)dibenzo[b,d]thiophen-2-yl)tetrahydropyrimidin-4(1H)-one] | > 300 | 
CC#Cc1ccc2sc3ccc([C@]4(C)CN(C)C(=O)C(=N)N4)cc3c2c1 [Example 115, (R)-3-Imino-1,5-dimethyl-5-(8-(prop-1-yn-1-yl)dibenzo[b,d]thiophen-2-yl) piperazin-2-one] | > 300 | 
CC#Cc1cc2c(cc1F)sc1ccc([C@]3(C)CS(=O)(=O)C(C)(C)C(=N)N3)cc12 [Example 128, (R)-5-(7-Fluoro-8-(prop-1-yn-1-yl)dibenzo[b,d]thiophen-2-yl)-3-imino-2,2,5-trimethylthiomorpholine 1,1-dioxide] |  | 49.1
CC#Cc1ccc2sc3ccc([C@]4(C)CS(=O)(=O)C5(CC5)C(=N)N4)cc3c2c1 [Example 136, (R)-8-Imino-6-methyl-6-(8-(prop-1-yn-1-yl)dibenzo[b,d]thiophen-2-yl)-4-thia-7-azaspiro[2.5]octane 4,4-dioxide] |  | 44.5
